Data from patent USRE48059E1, “Piperazine-substituted benzothiophenes for treatment of mental disorders” (Otsuka Pharmaceutical Co., Ltd., priority 2005, dated 2020).

Assays:
[1] = system: Serotonin (5-HT) uptake by rat brain synaptosome; experiment: Serotonin (5-HT) uptake inhibitory activity by rat brain synaptosome; format: biochemical; details: test compound 300 nM; rat frontal cortex crude synaptosome; tritium labeled 5-HT 8 nM
Experimental: Measurement of Serotonin (5-HT) Uptake Inhibitory Activity of a Test Compound by Rat Brain Synaptosome
Wistar male rats were decapitated, the brain was retrieved and frontal cortex was dissected out, and it was homogenized in 0.32 M sucrose solution of a weight 20 times of the weight of the tissue using a Potter type homogenizer.
5-HT uptake reaction was performed in a volume of 200 μl using a 96-well round bottom plate and pargyline (final concentration 10 μM) and sodium ascorbate (final concentration 0.2 mg/ml) were contained in the incubation buffer upon reaction and used.
Incubation buffer (total counting), non-labeled 5-HT (final concentration 10 μM, non-specific counting) and the diluted test compound (final concentration 300 nM) were added to each well. One-tenth quantity of the final volume of the synaptosome fraction was added and after preincubated at 37° C. for 10 minutes, tritium labeled 5-HT solution (final concentration 8 nM) was added and uptake reaction was started at 37° C. The uptake time was 10 minutes and the reaction was terminated by vacuum filtration through a 96-well fiber glass filter paper plate, and after the filter paper was washed with cold normal saline, it was dried enough and Microscint0 (Perkin-Elmer) was added to the filter and remaining radioactivity on the filter was measured.

[2] = target: Human recombinant dopamine D2 receptor (Homo sapiens (Human), UniProt P14416); details: forskolin stimulation; well without test compound = 100%; CHO/DHFR(-) cells
Human recombinant dopamine D2 receptor, sequence (P14416 whole entry): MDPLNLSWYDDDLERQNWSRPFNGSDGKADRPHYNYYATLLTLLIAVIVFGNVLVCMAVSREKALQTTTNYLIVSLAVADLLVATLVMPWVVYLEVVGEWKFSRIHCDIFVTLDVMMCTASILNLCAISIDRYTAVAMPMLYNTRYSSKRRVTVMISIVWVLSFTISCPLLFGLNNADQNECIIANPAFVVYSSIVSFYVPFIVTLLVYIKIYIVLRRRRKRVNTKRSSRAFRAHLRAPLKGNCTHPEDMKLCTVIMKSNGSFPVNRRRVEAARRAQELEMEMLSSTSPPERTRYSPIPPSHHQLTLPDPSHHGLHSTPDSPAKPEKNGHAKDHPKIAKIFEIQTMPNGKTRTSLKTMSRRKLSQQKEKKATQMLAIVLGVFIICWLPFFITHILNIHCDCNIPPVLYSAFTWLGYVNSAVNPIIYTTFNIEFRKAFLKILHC
Experimental: Partial agonistic activity on dopamine D2 receptor using D2 receptor expression cells
Partial agonistic activity on dopamine D2 receptor was evaluated by quantitatively determining cyclic AMP production inhibitory effect of a test compound in dopamine D2 receptor expression cells in which adenosine 3′,5′-cyclic monophosphate (cyclic AMP) production was induced by forskolin stimulation.
Human recombinant dopamine D2 receptor expressing Chinese hamster ovary/DHFR(−) cells were cultured in a culture medium (Iscove's Modified Dulbecco's Medium (IMDM culture medium), 10% fetal bovine serum, 50 I.U./ml penicillin, 50 μg/ml streptomycin, 200 μg/ml geneticin, 0.1 mM sodium hypoxanthine, 16 μM thymidine) at 37° C. and 5% carbon dioxide condition. Cells were seeded at 10^4 cells/well on a 96-well microtiter plate coated with poly-L-lysine and grown under the same condition for 2 days. Each well was washed with 100 μl of a culture medium (IMDM culture medium, 0.1 mM sodium hypoxanthine, 16 μM thymidine).

| quantity of cyclic AMP as the maximum activity [2] | Compound | Serotonin uptake inhibitory ratio (%)(300 nM) [1] |
| --- | --- | --- |
| – | CN1CCc2cc(OCCCN3CCN(c4cccc5sccc45)CC3)ccc2C1=O [Example 26, 6-[3-(4-benzo[b]thiophen-4-yl-piperazin-1-yl)propoxy]-2-methyl-3,4-dihydro-2H-isoquinolin-1-one] | 92.0% |
| – | CC1CC(=O)Nc2cc(OCCCCN3CCN(c4cccc5sccc45)CC3)ccc21 (stereo not shown) [Example 16, 7-[4-(4-benzo[b]thiophen-4-yl-piperazin-1-yl)butoxy]-4-methyl-3,4-dihydro-1H-quinolin-2-one] | 86.7% |
| – | O=C1CCc2ccc(OC/C=C/CN3CCN(c4cccc5sccc45)CC3)cc2N1 [Example 15, 7-[4-(4-benzo[b]thiophen-4-yl-piperazin-1-yl)-(E)-2-butenyloxy]-3,4-dihydro-1H-quinolin-2-one] | 87.2% |
| – | O=C1NCCc2cc(OCCCN3CCN(c4cccc5sccc45)CC3)ccc21 [Example 25, 6-[3-(4-benzo[b]thiophen-4-yl-piperazin-1-yl)propoxy]-3,4-dihydro-2H-isoquinolin-1-one] | 91.9% |
| – | Cc1cc2ccc(OCCCN3CCN(c4cccc5sccc45)CC3)cc2[nH]c1=O [Example 5, 7-[3-(4-benzo[b]thiophen-4-yl-piperazin-1-yl)propoxy]-3-methyl-1H-quinolin-2-one] | 89.1% |
| – | O=C1CCc2ccc(OC/C=C\CN3CCN(c4cccc5sccc45)CC3)cc2N1 [Example 13, 7-[4-(4-benzo[b]thiophen-4-yl-piperazin-1-yl)-(Z)-2-butenyloxy]-3,4-dihydro-1H-quinolin-2-one] | 77.0% |
| – | Cc1cc(=O)[nH]c2cc(OCCCN3CCN(c4cccc5sccc45)CC3)ccc12 [Example 3, 7-[3-(4-benzo[b]thiophen-4-yl-piperazin-1-yl)propoxy]-4-methyl-1H-quinolin-2-one] | 84.8% |
| about 10% | NCCc1ccc(O)c(O)c1 [dopamine] | – |
| – | CCN1CCc2cc(OCCCN3CCN(c4cccc5sccc45)CC3)ccc2C1=O [Example 27, 6-[3-(4-benzo[b]thiophen-4-yl-piperazin-1-yl)propoxy]-2-ethyl-3,4-dihydro-2H-isoquinolin-1-one] | 94.0% |
| – | Cc1cc(=O)[nH]c2cc(OCCCCN3CCN(c4cccc5sccc45)CC3)ccc12 [Example 4, 7-[4-(4-benzo[b]thiophen-4-yl-piperazin-1-yl)butoxy]-4-methyl-1H-quinolin-2-one] | 91.0% |
| – | O=C1CCc2ccc(OCCCN3CCN(c4cccc5sccc45)CC3)cc2N1 [Example 10, 7-[3-(4-benzo[b]thiophen-4-yl-piperazin-1-yl)propoxy]-3,4-dihydro-1H-quinolin-2-one] | 92.6% |
| – | O=c1[nH]c2ccccc2cc1OCCN1CCN(c2cccc3sccc23)CC1 [Example 2, 3-[2-(4-benzo[b]thiophen-4-yl-piperazin-1-yl)ethoxy]-1H-quinolin-2-one] | 78.8% |
| – | O=c1[nH]ccc2cc(OCCCN3CCN(c4cccc5sccc45)CC3)ccc12 [Example 40, 6-[3-(4-benzo[b]thiophen-4-yl-piperazin-1-yl)propoxy]-2H-isoquinolin-1-one] | 91.6% |
| – | O=c1ccc2ccc(OCCCCN3CCN(c4cccc5sccc45)CC3)cc2[nH]1 [Example 1, 7-[4-(4-benzo[b]thiophen-4-yl-piperazin-1-yl)butoxy]-1H-quinolin-2-one] | 92.4% |
| – | Cc1cc2ccc(OCCCCN3CCN(c4cccc5sccc45)CC3)cc2[nH]c1=O [Example 6, 7-[4-(4-benzo[b]thiophen-4-yl-piperazin-1-yl)butoxy]-3-methyl-1H-quinolin-2-one] | 91.3% |
| – | O=C1c2ccccc2CCN1CCCCCN1CCN(c2cccc3sccc23)CC1 [Example 24, 2-[5-(4-benzo[b]thiophen-4-yl-piperazin-1-yl)pentyl]-3,4-dihydro-2H-isoquinolin-1-one] | 97.5% |
| – | O=C1CCc2cc(OCCCCN3CCN(c4cccc5sccc45)CC3)ccc2N1 [Example 20, 6-[4-(4-benzo[b]thiophen-4-yl-piperazin-1-yl)butoxy]-3,4-dihydro-1H-quinolin-2-one] | 92.8% |
| – | O=c1ccc2ccc(OCCCN3CCN(c4cccc5sccc45)CC3)cc2[nH]1 [Example 7, 7-[3-(4-benzo[b]thiophen-4-yl-piperazin-1-yl)propoxy]-1H-quinolin-2-one] | 91.0% |
| – | O=c1c2ccccc2ccn1CCCCN1CCN(c2cccc3sccc23)CC1 [Example 34, 2-[4-(4-benzo[b]thiophen-4-yl-piperazin-1-yl)butyl]-2H-isoquinolin-1-one] | 94.2% |
